Data taken from ChEMBL document CHEMBL1201862, “PubChem BioAssay data set” (2004).
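Following 48 hours of exposure in 96-well plates, responses at five concentrations were used to interpolate endpoints linearly. At the GI50, growth is halved.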 Activity calls are given as the source filed them. No stated cut-off is given here; in the data, active = GI50 up to about 1.1 µM and inactive = higher.

Key:
Assay in all cases: NCI-60 cell line screen, 48 h
[1] = test system: HOP-62
[2] = test system: SNB-19
[3] = test system: SW-620
[4] = test system: HL-60
[5] = test system: SK-MEL-2
[6] = test system: UACC-62
[7] = test system: NCI-H23
[8] = test system: COLO 205
[9] = test system: HCT-15
[10] = test system: M14
[11] = test system: OVCAR-3
[12] = test system: KM12
[13] = test system: SK-MEL-28
[14] = test system: OVCAR-4
[15] = test system: NCI-H460
[16] = test system: RPMI-8226
[17] = test system: SF-268
[18] = test system: SNB-75
[19] = test system: HCC 2998

SMILES	GI50 [1]	GI50 [2]	GI50 [3]	GI50 [4]	GI50 [5]	GI50 [6]	GI50 [7]	GI50 [8]	GI50 [9] [µM]	GI50 [10]	GI50 [11]	GI50 [12]	GI50 [13]	GI50 [14]	GI50 [15]	GI50 [16]	GI50 [17]	GI50 [18]	GI50 [19]
OB1OCc2ccccc21 [BENZOXABOROLE]	26.7 µM (inactive)	60.8 µM (inactive)	30.7 µM (inactive)	> 100 µM (inactive)	37.2 µM (inactive)	35.9 µM (inactive)	36.7 µM (inactive)	33.7 µM (inactive)	24.7	55.3 µM (inactive)	60.4 µM (inactive)	65.9 µM (inactive)	21.6 µM (inactive)	32.4 µM (inactive)	34.7 µM (inactive)	18.2 µM (inactive)	42.2 µM (inactive)	–	–
CCOc1ccccc1NC(=O)CCc1n[nH]c(=S)o1	–	> 100 µM (inactive)	> 100 µM (inactive)	> 100 µM (inactive)	> 100 µM (inactive)	> 100 µM (inactive)	> 100 µM (inactive)	–	–	> 100 µM (inactive)	> 100 µM (inactive)	> 100 µM (inactive)	> 100 µM (inactive)	–	–	> 100 µM (inactive)	> 100 µM (inactive)	> 100 µM (inactive)	–
CC1=Nn2c(nnc2-c2ccccc2Cl)NC(C)(C)C1	> 100 µM (inactive)	> 100 µM (inactive)	6.25 µM (inactive)	50.9 µM (inactive)	> 100 µM (inactive)	> 100 µM (inactive)	> 100 µM (inactive)	54.2 µM (inactive)	51.9	> 100 µM (inactive)	–	> 100 µM (inactive)	> 100 µM (inactive)	> 100 µM (inactive)	> 100 µM (inactive)	26.1 µM (inactive)	> 100 µM (inactive)	> 100 µM (inactive)	> 100 µM (inactive)
CC(C)CC(N)C(=O)NC(C(=O)NC(CCCNC(=N)N)C(=O)NC(CS)C(=O)NC1CSCC(C(=O)NC(Cc2ccccc2)C(=O)NC(C(=O)NC(CCCNC(=N)N)C(=O)O)C(C)C)NC(=O)C2CCCN2C(=O)C(CCCCN)NC(=O)C2CCCN2C(=O)C2CCCN2C(=O)C(Cc2ccc(O)cc2)NC(=O)C(CO)NC(=O)C(CCCCN)NC(=O)C(C(C)O)NC(=O)C(Cc2c[nH]c3ccccc23)NC1=O)C(C)C (stereo not drawn)	> 25 µM (inactive)	> 25 µM (inactive)	> 25 µM (inactive)	> 25 µM (inactive)	> 25 µM (inactive)	> 25 µM (inactive)	> 25 µM (inactive)	> 25 µM (inactive)	> 25	> 25 µM (inactive)	> 25 µM (inactive)	> 25 µM (inactive)	> 25 µM (inactive)	> 25 µM (inactive)	–	> 25 µM (inactive)	> 25 µM (inactive)	–	–
C/C(=N\NC(=O)c1ccccc1O)C1=CNc2ccccc2S1	4.59 µM (inactive)	5.56 µM (inactive)	3.65 µM (inactive)	3.54 µM (inactive)	2.15 µM (inactive)	2.44 µM (inactive)	3.6 µM (inactive)	–	–	6.65 µM (inactive)	3.01 µM (inactive)	3.94 µM (inactive)	9.48 µM (inactive)	5.85 µM (inactive)	4 µM (inactive)	4.9 µM (inactive)	3.61 µM (inactive)	8.2 µM (inactive)	2.98 µM (inactive)
CC(=O)Oc1ccc2c(c1OC(C)=O)CCC1C2=CC[C@]2(C)C(=O)CCC12 (stereo partly drawn)	19.7 µM (inactive)	12.5 µM (inactive)	3.18 µM (inactive)	6.89 µM (inactive)	15.1 µM (inactive)	12.3 µM (inactive)	21.4 µM (inactive)	14.5 µM (inactive)	10.6	12.5 µM (inactive)	2.44 µM (inactive)	16 µM (inactive)	9.12 µM (inactive)	3.36 µM (inactive)	16.4 µM (inactive)	1 µM (active)	12.1 µM (inactive)	–	–
